{
  "source": "patent EP3705574A1",
  "about": "“SPLIT LUCIFERASE, AND HIGHLY SENSITIVE VITAMIN D RECEPTOR LIGAND DETECTION METHOD USING SAME” (Public University Corporation Toyama Prefectural University, priority 2017, dated 2019)",
  "key": {"[1]": {"target": "T1, LucN-NHPMLMNLLKDN-(GGGGS)×3-LBD-LucC biosensor (split firefly luciferase, LXXLL sequence, hVDR LBD 121-427 aa) (Homo sapiens, UniProt P11473)", "T1 construct": "expressed in transfected cells; host or cells: COS-7", "T1 sequence (P11473 121-427)": "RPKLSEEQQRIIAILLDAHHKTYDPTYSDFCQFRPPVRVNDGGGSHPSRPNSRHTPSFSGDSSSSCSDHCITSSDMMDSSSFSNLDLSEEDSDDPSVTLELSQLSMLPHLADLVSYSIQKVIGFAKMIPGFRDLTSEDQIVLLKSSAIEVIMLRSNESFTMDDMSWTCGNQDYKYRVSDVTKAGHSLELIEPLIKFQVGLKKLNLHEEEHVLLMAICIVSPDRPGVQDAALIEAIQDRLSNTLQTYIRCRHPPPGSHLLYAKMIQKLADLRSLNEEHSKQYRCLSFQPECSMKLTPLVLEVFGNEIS", "experiment": "Luciferase light emission in COS-7 cells expressing single molecular type biosensor", "format": "cell-based", "conditions": "0-1000 nM added, relative light intensity after 90 minutes"}, "[2]": {"tested_on": "double molecular type N29+N31 biosensor (6×His LBD(121-427 aa)-SmBiT + 6×His LgBiT-NHPMLMNLLKDN)", "experimental": "Several of the obtained E.coli colony were selected, inoculated into 2 mL of LB liquid culture medium (containing 100 µg/mL of ampicillin), and shaking culture was performed at 37°C and 200 rpm for 12 hours. 2 mL of E.coli solution was succeeded in 500 mL of LB liquid culture medium (containing 100 µg/mL of ampicillin) and cultivated at 37°C to OD600=0.4, and then 1 mM isopropyl-1-thio-β-D-galactopyranoside [IPTG (NACALAI TESQUE, INC.) was added and cultivated at 15°C for 3 hours to express proteins. After cultivation, centrifugal separation was performed at 4°C, 5000×g for 10 minutes to collect bacterial cells. Bacterial bodies were suspended in the solution containing 25 mM Tris-HCl, pH 7.4, 10 mM DTT, and protease cocktails of inhibitor (NACALAI TESQUE, Inc.) and then ultrasonic crushing was performed in ice for 15 sec×7 times. Thereafter, centrifugal separation was performed at 4°C, 20,000×g for 30 minutes, and supernatant was collected to obtain biosensor protein solutions N29, N30, N31 and N32.\nThereafter, 10 µl of light emission substrate solution (Nano-Glo Live Cell Assay System, Promega) was added and measured. Ethanol (EtOH) brought in, which is used as a solvent for VDR ligand, was at a final concentration of 1%. Microplate reader Infinite 200 Pro (TECAN) was used as an instrument for measuring light emission.\nAfter plating double molecular type N29+N31 to 96 well plate, 0-50 nM of 25(OH)D3 was added and incubated for 10 minutes at room temperature.\nAfter plating double molecular type N29+N31 to 96 well plate, 0-10 nM of 25(OH)D3 was added and incubated for 10 minutes at room temperature.\nAfter plating double molecular type N29+N31 to 96 well plate, 0-10000 nM calcitroic acid was added and incubated for 10 minutes at room temperature."}},
  "data": [
    {"smiles": "C=C1CC[C@H](O)C/C1=C/C=C1\\CCC[C@]2(C)[C@@H]([C@H](C)CCCC(C)(C)O)CC[C@@H]12", "note": "[25(OH)D3, 25 hydroxyvitamin D3]", "values": [
      {"measurement": "concentration reaching maximal light emission", "setting": "[1]", "result": 1000, "unit": "nM"},
      {"measurement": "Detection limit", "setting": "[2]; 0-10 nM 25(OH)D3, 10 minutes after light emission substrate solution, in vitro", "result": 1, "unit": "pM"},
      {"measurement": "concentration reaching maximal increase of light emission", "setting": "[2]; 0-50 nM 25(OH)D3, in vitro", "result": "around 50 nM"},
      {"measurement": "relative change of light emission", "setting": "[2]; nanoluciferase biosensor protein, 10 min, 1 pM", "result": "about 1.5 fold"}
    ]},
    {"smiles": "C=C1/C(=C\\C=C2/CCC[C@]3(C)[C@@H]([C@H](C)CC(=O)O)CC[C@@H]23)C[C@@H](O)C[C@@H]1O", "note": "[calcitroic acid]", "values": [
      {"measurement": "concentration required for increasing light emission", "setting": "[2]; 0-10000 nM calcitroic acid, 10 minutes after light emission substrate solution, in vitro", "result": "≥ 10", "unit": "nM"},
      {"measurement": "VDR affinity relative to 1α,25(OH)2D3", "setting": "[2]; stated with the N29+N31 biosensor evaluation", "result": "1/1000"}
    ]}
  ]
}
